# Experimental data from patent publication US6455590B1, “Deprenyl compounds for treatment of glaucoma” (University of Toronto Innovations.Foundation, priority 1995, dated 2002).
# What was measured:
# [1] = Stability of deprenyl as a function of the pH of the medium; format: physicochemical; details: pH about 3-5 versus pH about 7
# Text: The stability of deprenyl can be affected by the pH of the medium in which the deprenyl is formulated. […] Therefore, when formulating a deprenyl compound in a pharmaceutical composition, it is preferred that the deprenyl compound be maintained at a suitable pH. In preferred embodiments, a pharmaceutical composition of the invention has a pH in the range of about 3 to about 5, more preferably about 3 to about 4. Furthermore, ethyl alcohol is a preferred solvent for improving stability of deprenyl. Thus, in certain embodiments, alcoholic or aqueous alcoholic media are preferred for the pharmaceutical compositions of the invention.
# cell death = assay: Animal and cell-culture studies of prevention of cell death with the P450 inhibitor Proadifen; details: co-administration of the P450 inhibitor Proadifen
# Text: It is believed that certain deprenyl compounds can be at least partially metabolized in vivo after administration to a subject. For example, (−)-deprenyl can be metabolized by the liver to (−)-desmethyldeprenyl, as well as (−)-methamphetamine and (−)-amphetamine, after oral administration. The hepatic metabolism of (−)-deprenyl can be inhibited by administration of a P450 inhibitor such as Proadifen. […] It is presently believed that (−)-methamphetamine and (−)-amphetamine are inhibitors of the cell-rescuing activity of deprenyl compounds. […] Absence of MAO inhibitor activity may in fact provide a drug with fewer side effects.
# [2] = test system: retinal ganglion cells projecting to the superior colliculus (RGC^SCs) / RGCL neuronal cell bodies; assay: Optic nerve crush in rats: counts of Nissl-stained and Fluoro-Gold-labelled cell bodies in the retinal ganglion cell layer; format: in vivo; details: for counts of RGCL neuronal cell bodies (RGCLncbs) per mm length of retinal cross-section: Nissl stain, FIG. 1
# Text: All animals were handled according to the Declaration of Helsinki and The Guiding Principles in the Care and Use of Animals. […] The injections were delivered from a 10 microliter Hamilton syringe over a period of fifteen minutes.
# It has been reported that 40-50% of the neurons whose cell bodies are located in the retinal ganglion cell layer (RGCL) of the rat send an axon to the optic nerve and are RGCs (Cowey et al. (1979) Exp. Brain Res. 35, 457-64; Perry V. H. (1981) Neuroscience 6, 931-44: and Linden et al. (1989) Brain Res. 272, 145-149). […] Most RGCs (>95%) in rats send their axons to the SC with as many as 10% also sending branches to the lateral geniculate body (Cowey et al. (1979) Exp. Brain Res. 35, 457-64).
# Four days were allowed for the retrograde transport of the FG to the RGC^SCs cell bodies and then the left optic nerve of the rats was exposed and crushed by applying the tips of Dumont number 5 forceps to the nerve immediately behind the globe for ten seconds. Careful attention was used to avoid the central retinal artery. Each nerve was crushed three times at the same site. Following the crushes, the nerve was examined with the aid of an operating microscope to ensure that the axonal component of the nerve was divided into two clearly separated stumps surrounded by an unbroken dural sheath. Retinal artery patency was confirmed by direct ophthalmoscopy.
# One group of eight rats received (−)-deprenyl (1 mg/kg) by intraperitoneal (IP) injection every two days for a fourteen day period beginning at the time of optic nerve crush. The remaining group of eight rats received IP injections of saline on the same schedule. Fourteen days after the optic nerve crush all sixteen rats were euthanized with an overdose of somnotol and perfused transcardially with 4% paraformaldehyde in phosphate buffer. The brains and retinas were immersed in 20% sucrose for twenty four hours and then frozen in −70 degrees C methylbutane. Serial […] sections were cut through the upper brain stem and diencephalon of the animals and viewed under fluorescence microscopy to determine the location and extent of the stereotactic injections of FG. Serial […] sections of the retinas were cut and every third section was Nissl stained. In order to detect even low level FG fluorescence in neuronal cell bodies or processes, the FG labelled brain sections and the retinal sections were examined with the aid of a Hamarmatsu intensification camera that allowed the fluorescent images to be digitized using a Matrox frame grabber controlled by image analysis software (Universal Metamorph). This allowed for the creation of computer images of neuronal cell bodies containing FG in the sections taken from areas of the stereotactic injections and sections taken through each of the retinas.
# About 25 sections were chosen randomly from the serial sections taken from each retina. Sections were only chosen from the middle 70% of the serial sections where section length exceeded 6 mm. Nissl stained cell bodies in the RGCL were counted at 1000× magnification under oil immersion on a Leitz Orthoplan microscope. RGCL somata were only counted if they contained a well defined nucleus. The cross sectional length of the ganglion cell layer for each section was measured by transferring the retinal section image into a computer using a CCD camera (Dage Ltd.) and IPPLUS 2.1 software (Media Cybernetics). The number of RGCL neuronal cell bodies (RGCLncbs) per mm length of retinal crossection was calculated and were pooled for each of the four lesion/treatment groups (uncrushed-saline, uncrushed-deprenyl, crushed-saline and crushed-deprenyl).
# A similar group of sections were randomly chosen from one of the two remaining series of retinal sections. […]
SMILES,stability depending on pH of the medium [1],effect of Proadifen on cell-rescuing activity (prevention of cell death) (cell death),"counts of RGCL neuronal cell bodies (RGCLncbs) per mm length of retinal cross-section ([2]; crushed optic nerve, 14 days after crush, (−)-deprenyl 1 mg/kg IP every two days)","RGC^SCs as percentage of the mean value of the distribution for the uncrushed saline retinas ([2]; crushed optic nerve, 14 days, crushed saline 3.0%, FIG. 3)","numbers of neuronal cell bodies/mm in the RGCL as average percent of those in uncrushed saline retinae ([2]; crushed optic nerve, 14 days, crushed saline 46%)","slope of FG labelled versus Nissl stained cell body counts ([2]; crushed retinas, FIG. 2)","mean ratio of FG labelled to Nissl stained somata ([2]; crushed retinas, crushed saline 0.003)","survival of RGCs at fourteen days ([2]; crushed retinas, estimated assuming 40-50% of RGCL neurons do not send axons to the optic nerve, crushed saline less than 10%)","counts of RGCL neuronal cell bodies (RGCLncbs) per mm length of retinal cross-section ([2]; uncrushed optic nerve, (−)-deprenyl 1 mg/kg IP every two days for 14 days)"
"C#CCN(C)C(C)Cc1ccccc1 (single isomer, unassigned; (-)) [(−)-deprenyl, N,α-dimethyl-N-2-propynylphenethylamine]",more stable at a pH in the range of about 3-5 than at a pH of about 7,Proadifen reduces the ability of (−)-deprenyl to prevent cell death,32.60+/−9.94,36.9+/−11.2%,65%,0.219+/−0.019,0.245+/−0.055,30-40%,48.39+/−8.48 /mm
C#CCN[C@H](C)Cc1ccccc1 [(−)-desmethyldeprenyl],,does not block the cell-rescuing activity,,,,,,,
